# Source: patent US20250352615A1, “COMPOSITIONS AND METHODS FOR THE MODULATION OF PIEZO1 AND TRPV4” (Duke University, priority 2021, published 2025)
# Tests used:
# [1] = tested on: pancreatic acini; test: Trypsinogen activation in pancreatic acini (BZiPAR); format: cell-based, mouse
# Method: To visualize Piezo1-induced trypsinogen activation, acini were loaded with active trypsin enzyme substrate BZiPAR (10 μM). Na-HEPES buffer with 2 mM Ca^2+ was used during imaging. A Zeiss Axio observer Z1 with a high-sensitivity EMCCD camera with a ×40/0.75 EC-Plan-NeoFluar DIC objective was used to capture the Z-stack images with stack thickness of 3 μm at an interval of 12 seconds. The BZiPAR fluorescent wavelength Ex/Em was 498/521 nm. BZiPAR was excited at 470-510 nm and emission collected at 495-550 nm. The captured images were analyzed with MetaMorph software (Molecular Devices).
# [2] = tested on: PLA2; test: PLA2 activity in living pancreatic acini (Bis-BODIPY FL C11-PC); format: cell-based, mouse; conditions: Yoda1 25 μM
# Method: The fluorogenic PLA2 substrate (Bis-BODIPY FL C11-PC) (Thermo Fisher Scientific; B7701) was used to monitor PLA2 activity in living cells. The pancreatic acini were incubated with Bis-BODIPY FL C11-PC in HBSS buffer with 2 mM Ca^2+ for 30 minutes. HBSS buffer with 2 mM Ca^2+ was used during imaging. A Zeiss Axio observer Z1 with a high-sensitivity EMCCD camera with a ×40/0.75 EC-Plan-NeoFluar DIC objective was used to capture the Z-stack images with stack thickness of 4 μm at an interval of 10 seconds with 480 nm excitation and 525 nm emission filter. The captured images were analyzed with MetaMorph software (Molecular Devices).
# [3] = target: T1, TRPV4 (Mus musculus, UniProt Q9EPK8); test: Calcium imaging of TRPV4-mediated [Ca2+]i in mouse PSCs; format: cell-based; conditions: Yoda1 25 μM
# T1 construct: endogenous in cells; host or cells: freshly isolated mouse pancreatic acini (C57BL/6J WT)
# T1 sequence (Q9EPK8 whole entry): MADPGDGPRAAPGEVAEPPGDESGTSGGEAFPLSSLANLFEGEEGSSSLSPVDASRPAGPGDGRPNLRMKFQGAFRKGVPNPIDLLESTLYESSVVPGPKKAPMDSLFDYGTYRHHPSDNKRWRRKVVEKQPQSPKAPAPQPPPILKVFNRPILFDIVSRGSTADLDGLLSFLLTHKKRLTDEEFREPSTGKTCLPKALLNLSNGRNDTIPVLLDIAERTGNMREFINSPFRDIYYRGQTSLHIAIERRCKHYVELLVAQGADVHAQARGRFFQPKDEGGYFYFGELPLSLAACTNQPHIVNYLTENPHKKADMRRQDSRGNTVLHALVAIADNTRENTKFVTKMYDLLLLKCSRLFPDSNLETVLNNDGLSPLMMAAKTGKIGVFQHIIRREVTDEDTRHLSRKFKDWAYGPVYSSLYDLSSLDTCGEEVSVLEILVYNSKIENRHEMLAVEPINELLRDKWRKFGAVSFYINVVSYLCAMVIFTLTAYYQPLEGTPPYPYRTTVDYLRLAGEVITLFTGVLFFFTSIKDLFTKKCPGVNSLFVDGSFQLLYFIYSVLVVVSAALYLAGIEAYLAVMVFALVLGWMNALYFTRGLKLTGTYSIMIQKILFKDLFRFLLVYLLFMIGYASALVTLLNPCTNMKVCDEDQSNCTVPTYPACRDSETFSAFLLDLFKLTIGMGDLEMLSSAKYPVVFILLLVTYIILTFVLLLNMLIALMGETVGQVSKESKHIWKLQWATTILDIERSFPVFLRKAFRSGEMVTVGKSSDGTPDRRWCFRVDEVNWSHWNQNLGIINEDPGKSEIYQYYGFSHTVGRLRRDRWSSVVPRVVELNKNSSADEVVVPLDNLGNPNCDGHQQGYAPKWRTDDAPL
# Method: Mouse and human PSCs were isolated using collagenase digestion. Modified Krebs Henseleit Buffer (KHB) solution (100 mL) was prepared as previously described by Romac et al., Nat. Commun. 9(1):1715 (2018). Pancreatic tissue was digested with 2 mg of collagenase NB 8 (SERVA, catalog 17456) dissolved in 10 mL of modified KHB solution containing 1 mg soybean trypsin inhibitor (SBTI 1-S; Millipore Sigma, catalog T9003) and 20 mg BSA (Thermo Fisher Scientific; BP1600-100). Digestion solution (5 mL) was used to inflate the pancreas. Pancreas with 5 mL of digestion solution was incubated in a shaking water bath for 10 minutes at 37° C. The solution was then discarded. The pancreas tissue was cut into small pieces and digested with fresh 5 mL digestion buffer. Tissue was incubated in a shaking water bath for 40 minutes at 37° C. The cells were then separated from tissue by pipetting up-down with a 10 mL pipette and passed sequentially through a 70 μm and a 40 μm cell strainer. The filtrate was centrifuged at 150×g for 3 minutes at room temperature. The cells were washed with 10 mL Leibovitz's media (Thermo Fisher Scientific, catalog 11415-064), passed through a 20 μm filter, and centrifuged at 80×g for 3 minutes at room temperature. The supernate was removed, and isolated stellate cells were plated on a thin-layered Matrigel-coated glass bottom culture plate (MatTek, P35G-0-14-C). Before plating the cells, Matrigel solution (Corning, catalog 354234) at a ratio of 1.5:100 DMEM/F12 (Thermo Fisher Scientific, catalog 11330-032) was poured onto the culture plate and incubated for 2 hr at 37° C. to form a thin layer of Matrigel coating. Matrigel mixture was removed, and the plate was washed with PBS before cells were plated. Cell culture media, DMEM/F12 with 5% FBS was used for mouse stellate cells. Fresh, human pancreatic tissue was digested with collagenase as described above with modifications. […] The cell viability following Yoda1 treatment was analyzed using the Live/Dead cell imaging kit (Thermo Fisher Scientific, catalog R37601). […]
# [4] = tested on: human PSCs; test: Human PSC activation and fibrogenic response (fat droplets, cell shape, ECM mRNA and immunostaining); format: cell-based
# Method: Mouse and human PSCs were isolated using collagenase digestion. Modified Krebs Henseleit Buffer (KHB) solution (100 mL) was prepared as previously described by Romac et al., Nat. Commun. 9(1):1715 (2018). Pancreatic tissue was digested with 2 mg of collagenase NB 8 (SERVA, catalog 17456) dissolved in 10 mL of modified KHB solution containing 1 mg soybean trypsin inhibitor (SBTI 1-S; Millipore Sigma, catalog T9003) and 20 mg BSA (Thermo Fisher Scientific; BP1600-100). Digestion solution (5 mL) was used to inflate the pancreas. Pancreas with 5 mL of digestion solution was incubated in a shaking water bath for 10 minutes at 37° C. The solution was then discarded. The pancreas tissue was cut into small pieces and digested with fresh 5 mL digestion buffer. Tissue was incubated in a shaking water bath for 40 minutes at 37° C. The cells were then separated from tissue by pipetting up-down with a 10 mL pipette and passed sequentially through a 70 μm and a 40 μm cell strainer. The filtrate was centrifuged at 150×g for 3 minutes at room temperature. The cells were washed with 10 mL Leibovitz's media (Thermo Fisher Scientific, catalog 11415-064), passed through a 20 μm filter, and centrifuged at 80×g for 3 minutes at room temperature. The supernate was removed, and isolated stellate cells were plated on a thin-layered Matrigel-coated glass bottom culture plate (MatTek, P35G-0-14-C). Before plating the cells, Matrigel solution (Corning, catalog 354234) at a ratio of 1.5:100 DMEM/F12 (Thermo Fisher Scientific, catalog 11330-032) was poured onto the culture plate and incubated for 2 hr at 37° C. to form a thin layer of Matrigel coating. Matrigel mixture was removed, and the plate was washed with PBS before cells were plated. Cell culture media, DMEM/F12 with 5% FBS was used for mouse stellate cells. Fresh, human pancreatic tissue was digested with collagenase as described above with modifications. Collagenase (2.5 mg) in 10 mL of modified KHB solution was used for digestion. The digested tissues were filtered through a 100 μm cell strainer. The cells were cultured with DMEM/F12 with 10% FBS in a Matrigel-coated plate. After 24 hr, the cell media was replaced with fresh media to remove unattached and dead cells. After 2 days, cells were immunostained for GFAP and used for experiments. Perinuclear fat droplets were stained with BODIPY 493/503 (4,4-Difluoro-1,3,5,7,8-Pentamethyl-4-Bora-3a,4a-Diaza-s-Indacene; Invitrogen, catalog D3922) to confirm stellate cell quiescence. The cell viability following Yoda1 treatment was analyzed using the Live/Dead cell imaging kit (Thermo Fisher Scientific, catalog R37601). RNAs were isolated using the RiboPure Kit (Invitrogen, catalog AM1924) according to manufacturer's instructions.
# Fluid shear stress and mechanical pushing applied to stellate cells were achieved as previously described by Wang et al., J. Clin. Invest. 126(12): 4527-4536 (2016). Parallel-plate fluid flow chambers (μ-Slide I 0.4 Luer, or μ-Slide I 0.2 Luer from Ibidi) were used for fluid shear stress experiments. The fluid shear stress (T) was calculated using the formula: τ=η×[…] φ for μ-Slide I 0.4 Luer and τ=η×330.4 φ for μ-Slide I 0.2 Luer, where r represents viscosity of the medium and φ represents flow rate (according to the manufacturer's instructions, Ibidi). Mechanical pushing was achieved by applying a blunt borosilicate glass pipette once to the cell membrane with a deflection of 2-3 μm for 1 second using a micromanipulator (World Precision Instruments).
# Mouse and human PSCs were washed with PBS (pH 7.4) and fixed with 4% paraformaldehyde for 10 minutes at room temperature. The fixed cells were treated with 0.1% Triton X-100. […]
smiles,measurement,setting,value
Clc1cccc(Cl)c1CSc1nnc(-c2cnccn2)s1 [Yoda1],trypsin activation in acinar cells from Piezo1aci-KO mice,[1]; Yoda1,did not respond to Yoda1
same,trypsin activation (BZiPAR fluorescence),[1]; Yoda1 50 μM or CCK 10 nM,activated trypsin in pancreatic acini over time
same,time to trypsin activation after application,"[1]; Yoda1 50 μM, CCK 10 nM",≤ 10 min
same,PLA2 activation in acini from Piezo1aci-KO mice,[2],did not stimulate PLA2 activation
same,onset of PLA2 activation after application,[2],≤ 30 s
same,time to plateau of PLA2 activity,[2],4 min
same,intensity of fluorogenic PLA2 substrate (PLA2 activity),[2]; WT acini,markedly increased the intensity of the fluorogenic PLA2 substrate
same,[Ca2+]i response in TRPV4-null PSCs,[3],caused only transient calcium elevations in TRPV4-null PSCs
same,"Fibronectin, collagen type I, and Piezo1 mRNA levels","[4]; Yoda1 25 μM, 24 hr",significantly elevated
same,TGF-β1 gene expression,"[4]; Yoda1 25 μM, 24 hr",stimulation of profibrotic TGF-β1
same,mean cell area and maximum diameter (mean Feret's diameter-max),"[4]; Yoda1 25 μM, 24 hr",significant increase in mean cell area and maximum diameter
same,PSCs that had lost their perinuclear fat droplets,"[4]; Yoda1 25 μM, within 24 hours",~80%
same,fibronectin and collagen type I immunostaining,[4]; after 4 days of Yoda1 25 μM,abundant
